Laboratory results from patent US20090036469A1, “2,6-SUBSTITUTED-4-MONOSUBSTITUTED AMINO-PYRIMIDINE AS PROSTAGLANDIN D2 RECEPTOR ANTAGONISTS” (SANOFI-AVENTIS, priority 2006, published 2009).
Where a name gives a salt, the structure may show the parent alone.

Target: T1, DP receptor (Homo sapiens, UniProt Q13258)
T1 construct: the human cell line LS174T, which expresses the endogenous DP receptor; endogenous in cells; host or cells: LS174T human cell line
T1 sequence (Q13258 1-359): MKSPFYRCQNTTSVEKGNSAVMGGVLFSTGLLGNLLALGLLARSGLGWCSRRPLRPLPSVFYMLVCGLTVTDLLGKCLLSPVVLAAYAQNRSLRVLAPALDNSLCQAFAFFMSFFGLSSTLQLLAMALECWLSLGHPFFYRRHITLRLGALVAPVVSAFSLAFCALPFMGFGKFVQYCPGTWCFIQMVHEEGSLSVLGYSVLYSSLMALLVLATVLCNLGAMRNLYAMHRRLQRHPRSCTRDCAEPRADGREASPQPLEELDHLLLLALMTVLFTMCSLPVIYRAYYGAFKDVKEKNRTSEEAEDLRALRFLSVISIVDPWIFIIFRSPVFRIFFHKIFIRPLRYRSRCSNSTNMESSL
Assay: SPA cAMP assay in human LS174 T cells (human DP functional assay)
Assay type: cell-based
Conditions: concentration of the compound that produces 50% inhibition in the SPA cAMP assay in human LS174 T cells; PGD2 15 nM final concentration
Description: As used in the examples and preparations that follow, as well as the rest of the application, the terms used therein shall have the meanings indicated: “kg” refers to kilograms, “g” refers to grams, “mg” refers to milligrams, “μg” refers to micrograms, “mol” refers to moles, “mmol” refers to millimoles, “M” refers to molar, “mM” refers to millimolar, “μM” refers to micromolar, “nM” refers to nanomolar, “L” refers to liters, “mL” or “ml” refers to milliliters, “μL” refers to microliters, “° C.” refers to degrees Celsius, “mp” or “m.p.” refers to melting point, “bp” or “b.p.” refers to boiling point, “mm of Hg” refers to pressure in millimeters of mercury, “cm” refers to centimeters, “nm” refers to nanometers, “abs.” refers to absolute, “conc.” refers to concentrated, “c” refers to concentration in g/mL, “rt” refers to room temperature, “TLC” refers to thin layer chromatography, “HPLC” refers to high performance liquid chromatography, “i.p.” refers to intraperitoneally, “i.v.” refers to intravenously, “s”=singlet, “d”=doublet; “t”=triplet; “q”=quartet; “m”=multiplet, “dd”=doublet of doublets; “br”=broad, “LC”=liquid chromatograph, “MS”=mass spectrograph, “ESI/MS”=electrospray ionization/mass spectrograph, “RT”=retention time, “M”=molecular ion, “PSI”=pounds per square inch, “DMSO”=dimethyl sulfoxide, “DMF”=N,N-dimethylformamide, “CDI”=1,1′-carbonyldiimidazole, “DCM” or “CH2Cl2”=dichloromethane, “HCl”=hydrochloric acid, “SPA”=Scintillation Proximity Assay, “ATTC”=American Type Culture Collection, “FBS”=Foetal Bovine Serum, “MEM”=Minimal Essential Medium, “CPM”=Counts Per Minute, “EtOAc”=ethyl acetate, “PBS”=Phosphate Buffered Saline, “TMD”=transmembrane domain, “IBMX”=3-isobutyl-1-methylxanthine, “cAMP”=cyclic adenosine monophosphate, “IUPAC”=International Union of Pure and Applied Chemistry, “MHz”=megahertz, “PEG”=polyethylene glycol, “MeOH”=methanol, “N”=normality, “THF”=tetrahydrofuran, “h”=hours, “min”=minute(s), “MeNH2”=methyl amine, “N2”=nitrogen gas, “O.D.”=outer diameter, “MeCN” or “CH3CN”=acetonitrile, “Et2O”=ethyl ether, “Prep LC”=preparatory “flash” liquid chromatography, “SPE”=solid phase extraction, “K2CO3”=potassium carbonate, “Na2CO3”=sodium carbonate, “pmol”=picomolar, “heptane”=n-heptane, “HMBA-AM” resin=4-hydroxymethylbenzoic acid amino methyl resin, “PdCl2(dppf)2”=1,1′-bis(diphenylphosphino)ferrocene-palladium (II) dichloride DCM complex, “˜”=approximately, and “IC50”=concentration of the compound that produces 50% inhibition in the SPA cAMP assay in human LS174 T cells.
The inhibitory effects of the compounds according to the invention are assessed in a human DP functional assay. A cAMP assay is employed using the human cell line LS174T, which expresses the endogenous DP receptor. The protocol is similar to that described previously (Wright D H, Ford-Hutchinson A W, Chadee K, Metters K M, The human prostanoid DP receptor stimulates mucin secretion in LS174T cells, Br J Pharmacol. 131(8):1537-45 (2000)).
Protocol for SPA cAMP Assay in Human LS174 T Cells
Add 50 μL of […] IBMX into 100 mL PBS to make a final concentration of 100 μM and sonicate at 30° C. for 20 minutes.
Dissolve 1 mg PGD2 (FW, 352.5) in 284 μL DMSO to make 10 mM stock solution and store at […]. Before each assay, it is freshly prepared. Add 3 μL of 10 mM stock solution to 20 mL DMSO, mix it thoroughly, and transfer 10 mL to 40 mL PBS.
Compound dilution is carried out in Biomex 2000 (Beckman) using Method 1_cAMP DP 11 points.
5 μL of each compound from the 10 mM stock compound plates is transferred to the wells of a 96-well plate respectively as below.
Fill the plate with 45 μL of DMSO except column 7 is filled with 28 μL DMSO. Pipette column 1 thoroughly, and transfer 12 μL into column 7 parallel. Perform 1:10 serial dilution from column 1 to column 6 and from column 7 to column 11 by transfer 5 μL to 45 μL DMSO to make following concentrations:
Fill a new 96-well plate with 247.5 μL of compound dilution buffer. […]

SMILES | IC50 [nM]
COc1nc(NCCc2ccc(Cl)cc2Cl)cc(N2CCC(C(=O)O)C2)n1 (stereo not shown) [Example 1] | 9
COc1nc(NCCc2ccc(OC(F)(F)F)cc2)cc(N2CCCC(C(C)(C)C(=O)O)C2)n1 (stereo not shown) [Example 2, 2-(1-{2-Methoxy-6-[2-(4-trifluoromethoxy-phenyl)-ethylamino]-pyrimidin-4-yl}-piperidin-3-yl)-2-methyl-propionic acid] | 2
COc1nc(NCCc2ccc(Cl)cc2Cl)cc(-c2cc(C(C)(C)O)cc(C(C)(C)O)c2)n1 [Example 3, 2-[3-{6-[2-(2,4-Dichloro-phenyl)-ethylamino]-2-methoxy-pyrimidin-4-yl}-5-(1-hydroxy-1-methyl-ethyl)-phenyl]-propan-2-ol] | 730
COc1nc(NCCc2ccc(Cl)cc2Cl)cc(N2CCCC(N)C2)n1 (stereo not shown) [Example 4, [6-(3-Amino-piperidin-1-yl)-2-methoxy-pyrimidin-4-yl]-[2-(2,4-dichloro-phenyl)-ethyl]-amine] | 985
COc1nc(NCCc2ccc(Cl)cc2Cl)cc(N2CCC(NC(C)=O)CC2)n1 [Example 5(b), N-(1-{6-[2-(2,4-Dichloro-phenyl)-ethylamino]-2-methoxy-pyrimidin-4-yl}-piperidin-4-yl)-acetamide] | 26
COc1nc(NCCc2ccc(Cl)cc2Cl)cc(-c2cccc(C(C)(C)C(=O)NS(=O)(=O)C(C)(C)C)c2)n1 [Example 7(a), 2-Methyl-propane-2-sulfonic acid [2-(3-{6-[2-(2,4-dichloro-phenyl)-ethylamino]-2-methoxy-pyrimidin-4-yl}-phenyl)-2-methyl-propionyl]-amide] | 2
COc1nc(NCCc2ccc(Cl)cc2Cl)cc(-c2cccc(C(C)(C)C(=O)N3CCSCC3)c2)n1 [Example 7(c), 2-(3-{6-[2-(2,4-Dichloro-phenyl)-ethylamino]-2-methoxy-pyrimidin-4-yl}-phenyl)-2-methyl-1-thiomorpholin-4-yl-propan-1-one] | 383
COc1nc(NCCc2ccc(Cl)cc2Cl)cc(N2CCCC(CC(=O)O)C2)n1 (stereo not shown) [Example 8, (1-{6-[2-(2,4-Dichloro-phenyl)-ethylamino]-2-methoxy-pyrimidin-4-yl}-piperidin-3-yl)-acetic acid] | 0.5
COc1nc(NCCc2ccc(OC(F)(F)F)cc2)cc(N2CCCC(C(=O)O)C2)n1 (stereo not shown) [Example 9, 1-{2-Methoxy-6-[2-(4-trifluoromethoxy-phenyl)-ethylamino]-pyrimidin-4-yl}-piperidine-3-carboxylic acid] | 9
COc1nc(NCCc2ccc(OC(F)(F)F)cc2)cc(N2CCCC(C(=O)NS(C)(=O)=O)C2)n1 (stereo not shown) [Example 10, N-(1-{2-Methoxy-6-[2-(4-trifluoromethoxy-phenyl)-ethylamino]-pyrimidin-4-yl}-piperidine-3-carbonyl)-methanesulfonamide] | 22
COc1nc(NCCc2ccc(Cl)cc2Cl)cc(N2CCCC(C(=O)NS(C)(=O)=O)C2)n1 (stereo not shown) [Example 11(a), N-(1-{6-[2-(2,4-Dichloro-phenyl)-ethylamino]-2-methoxy-pyrimidin-4-yl}-piperidine-3-carbonyl)-methanesulfonamide] | 1
COc1nc(NCCc2ccc(Cl)cc2Cl)cc(N2CCCC(C(=O)NS(=O)(=O)C(F)(F)F)C2)n1 (stereo not shown) [Example 11(d), N-(1-{6-[2-(2,4-Dichloro-phenyl)-ethylamino]-2-methoxy-pyrimidin-4-yl}-piperidine-3-carbonyl)-C,C,C-trifluoro-methanesulfonamide] | 18
COc1nc(NCCc2ccc(Cl)cc2Cl)cc(N2CCCC(C(=O)Nc3nnn[nH]3)C2)n1 (stereo not shown) [Example 11(e), 1-{6-[2-(2,4-Dichloro-phenyl)-ethylamino]-2-methoxy-pyrimidin-4-yl}-piperidine-3-carboxylic acid (1H-tetrazol-5-yl)-amide] | 4.4
COc1nc(NCCc2ccc(Cl)cc2Cl)cc(N2CCCC(C(=O)NS(=O)(=O)N(C)C)C2)n1 (stereo not shown) [Example 11(h), N,N-Dimethylamide-2-sulfonic acid 1-{6-[2-(2,4-dichloro-phenyl)-ethylamino]-2-methoxy-pyrimidin-4-yl}-piperidine-3-carboxamide] | 14
COc1nc(NCCc2ccc(OC(F)(F)F)cc2)cc(-c2ccc(C(=O)O)s2)n1 [Example 12, 5-{2-Methoxy-6-[2-(4-trifluoromethoxy-phenyl)-ethylamino]-pyrimidin-4-yl}-thiophene-2-carboxylic acid] | 2
COc1nc(NCCc2ccc(Cl)cc2Cl)cc(-c2ccc3c(c2)CC(C(=O)O)O3)n1 (stereo not shown) [Example 13, 5-{6-[2-(2,4-Dichloro-phenyl)-ethylamino]-2-methoxy-pyrimidin-4-yl}-2,3-dihydro-benzofuran-2-carboxylic acid hydrochloride] | 2
